The assay deals with HIV-IIIb. Kind of assay: Antiviral assay in MT4 cells. To be noted: Human immunodeficiency virus 1, IIIB, MT4, 120 h, MT4 cells infected with HIV-IIIb, 5 days, CellTiter-Glo; read-out: EC50 nM in MT-4. The format is cell-based. The method in brief: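 MT4 cells pre-infected with HIV-IIIb (0.004 m.o.i.) at 37 °C, or mock-infected, then seeded at 2000 cells/well onto 3-fold serially diluted compound (10 concentrations, quadruplicate) in RPMI 1640 with 10% FBS. After 5 days at 37 °C, cell viability read by CellTiter-Glo luminescence.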

For the molecule `O=C(NCc1ccc(F)cc1C(F)(F)F)c1cn2c(c(O)c1=O)C(=O)N1[C@H]3CC[C@H](C3)O[C@@H]1C2` [Compound 62, (2R,5S,13aR)—N-(4-fluoro-2-(trifluoromethyl)benzyl)-8-hydroxy-7,9-dioxo-2,3,4,5,7,9,13,13a-octahydro-2,5-methanopyrido[1′,2′:4,5]pyrazino[2,1-b][1,3]oxazepine-10-carboxamide], the concentration for a half-maximal effect (EC50) worked out at 9.2 nM.

`C[C@H](NC(=O)c1cn2c(c(O)c1=O)C(=O)N1[C@H]3CC[C@H](C3)O[C@@H]1C2)c1ccc(F)cc1` [Compound 22, (2R,5S,13aR)—N—((S)-1-(4-fluorophenyl)ethyl)-8-hydroxy-7,9-dioxo-2,3,4,5,7,9,13,13a-octahydro-2,5-methanopyrido[1′,2′:4,5]pyrazino[2,1-b][1,3]oxazepine-10-carboxamide]: the EC50 was found to be 64.3 nM.
